Structures can show the parent of a compound that is named as a salt. Where two headings read alike, the source gives them in different places.

The subject of this experiment is TRIM31 mRNA. Nature of the experiment: TRIM31 mRNA expression by RT-qPCR in PA/OA-induced L02 cells. It is filed as cell-based, human. Particulars: for fold induction at 100 µM: Homo sapiens. Here is the method:
Palmitic acid/oleic acid (PA/OA) was used to induce the decrease of TRIM31 mRNA expression in human hepatocyte L02 cells. The cells were divided into control group and drug group. The drug group was treated with a concentration of 100 μmol/L compound, and the expression level of TRIM31 mRNA was detected by RT-qPCR. The expression level of TRIM31 mRNA in the drug group divided by that in the control group (Qdrug/Qctrl) was used to evaluate the ability of the compounds to promote TRIM31 expression. […]

Setting [1] is: 100 μmol/L compound, PA/OA-induced L02 cells, RT-qPCR.
Where [2] appears, read: 100 μmol/L compound, PA/OA-induced L02 cells, RT-qPCR, read-out: Qdrug/Qctrl (TRIM31 mRNA expression level, drug group divided by control group).
Where [3] appears, read: L02, read-out: Qdrug/Qctrl (TRIM31 mRNA expression level, drug group divided by control group).

Take `Oc1cc(O)c2c(c1)O[C@H](c1cc(O)c(O)c(O)c1)[C@H](O)C2` [(−)-epigallocatechin]: the “Qdrug/Qctrl (TRIM31 mRNA expression level, drug group divided by control group)” value under setting [1] was 2.71 fold.

Regarding `COc1cc2c(c3c1c(=O)c1ccccc1n3C)C=CC(C)(C)O2` [Acronycine], the fold induction at 100 µM under setting [2] worked out at 1.43.

Take `C[S+](CC[C@H](N)C(=O)[O-])C[C@H]1O[C@@H](n2cnc3c(N)ncnc32)[C@H](O)[C@@H]1O` (stereo partly shown) [Ademetionine, reference compound]: the fold induction at 100 µM under setting [2] came to 2.55.

As for `Oc1ccc([C@H]2Oc3cc(O)cc(O)c3C[C@@H]2O)cc1` [Afzelechin], under setting [1], the “Qdrug/Qctrl (TRIM31 mRNA expression level, drug group divided by control group)” value came out at 3.12 fold.

Consider `O=c1cc(-c2ccc(O)cc2)oc2cc(O)cc(O)c12` [Apigenin], for which the fold induction at 100 µM under setting [3] came to 3.21.

In the case of `O=c1cc(-c2ccc(O)cc2)oc2cc(O[C@@H]3O[C@H](CO)[C@@H](O)[C@H](O)[C@H]3O[C@@H]3OC[C@](O)(CO)[C@H]3O)cc(O)c12` [Apiin], under setting [2], the fold induction at 100 µM is 3.22.

For `O=c1cc(-c2ccccc2)oc2cc(O)c(O)c(O)c12` [Baicalein], under setting [3], the fold induction at 100 µM stood at 3.53.

Regarding `O=C(O)[C@H]1O[C@@H](Oc2cc3oc(-c4ccccc4)cc(=O)c3c(O)c2O)[C@H](O)[C@@H](O)[C@@H]1O` [Baicalin], the fold induction at 100 µM under setting [2] stood at 2.98.

With `COc1ccc2cc3[n+](cc2c1OC)CCc1cc2c(cc1-3)OCO2` [Berberine, reference compound], the fold induction at 100 µM under setting [3] worked out at 1.32.

On to `COC(=O)c1cc(OC)c2c(c1-c1c(CO)cc(OC)c3c1OCO3)OCO2` [Bicyclol, reference compound], for which the fold induction at 100 µM under setting [2] was 2.45.

Turning to `COC(=O)c1cc(OC)c2c(c1-c1c(C(=O)OC)cc(OC)c3c1OCO3)OCO2` [Bifendate, reference compound], the fold induction at 100 µM under setting [3] worked out at 1.76.

Turning to `CC[C@@]1(O)C(=O)OCc2c1cc1n(c2=O)Cc2cc3ccccc3nc2-1` [Camptothecin], the fold induction at 100 µM under setting [2] worked out at 2.13.

In the case of `CN1Cc2c(ccc3c2OCO3)[C@@H]2[C@H]1c1cc3c(cc1C[C@@H]2O)OCO3` [Chelidonine], the fold induction at 100 µM under setting [3] was determined as 1.53.

As to `C[C@H](CCC(=O)O)[C@H]1CC[C@H]2[C@@H]3[C@H](O)C[C@@H]4C[C@H](O)CC[C@]4(C)[C@H]3CC[C@]12C` [Chenodeoxycholic acid, reference compound], under setting [2], the fold induction at 100 µM was determined as 2.54.

Take `O=C(/C=C/c1ccc(O)c(O)c1)O[C@@H]1C[C@](O)(C(=O)O)C[C@@H](O)[C@H]1O` [Chlorogenic acid]: the fold induction at 100 µM under setting [3] came out at 2.42.

Consider `O=c1cc(-c2ccccc2)oc2cc(O)cc(O)c12` [Chrysin], for which the fold induction at 100 µM under setting [3] was 2.89.

Take `COc1cc2c(c(OC)c1OC)-c1ccc(OC)c(=O)cc1[C@@H](NC(C)=O)CC2` [Colchicine, reference compound]: the fold induction at 100 µM under setting [3] came to 1.32.

Regarding `COc1cc(/C=C/C(=O)CC(=O)/C=C/c2ccc(O)c(OC)c2)ccc1O` [Curcumin], the fold induction at 100 µM under setting [3] was found to be 2.83.

With `Oc1cc(O)c2cc(O)c(-c3ccc(O)c(O)c3)[o+]c2c1` [Cyanidin], under setting [3], the fold induction at 100 µM was determined as 2.97.

Regarding `O=C(/C=C/c1ccc(O)c(O)c1)O[C@@H]1C[C@@](OC(=O)/C=C/c2ccc(O)c(O)c2)(C(=O)O)C[C@@H](O)[C@@H]1O` [Cynarin], under setting [2], the fold induction at 100 µM was 2.56.

For the compound `C=C(CO)C(=O)O[C@H]1CC(=C)[C@@H]2C[C@H](O)C(=C)[C@@H]2[C@H]2OC(=O)C(=C)[C@@H]21` [Cynaropicrin], the fold induction at 100 µM under setting [3] came out at 3.35.

Take `O=c1c(-c2ccc(O)cc2)coc2cc(O)ccc12` [Daidzein]: the fold induction at 100 µM under setting [3] was 2.66.

As for `Oc1cc(O)c2cc(O)c(-c3cc(O)c(O)c(O)c3)[o+]c2c1` [Delphinidin], the fold induction at 100 µM under setting [2] was 2.49.

Regarding `O=C1c2c(O)cc(O)cc2O[C@H](c2ccc(O)c(O)c2)[C@H]1O` [Dihydroquercetin], the fold induction at 100 µM under setting [3] was 3.32.

Take `COc1ccc(-c2cc(=O)c3c(O)cc(O)cc3o2)cc1O` [Diosmetin]: the fold induction at 100 µM under setting [2] came out at 3.41.

Turning to `Oc1cc(O)c2c(c1)O[C@H](c1ccc(O)c(O)c1)[C@H](O)C2` [Epicatechin], the fold induction at 100 µM under setting [3] came to 2.92.

`COc1cc(/C=C/C(=O)O)ccc1O` [Ferulic acid]: the fold induction at 100 µM under setting [3] is 2.51.

For `O=c1c(O)c(-c2ccccc2)oc2cc(O)cc(O)c12` [Galangin], the fold induction at 100 µM under setting [2] amounted to 2.81.

`O=c1c(-c2ccc(O)cc2)coc2cc(O)cc(O)c12` [Genistein]: the fold induction at 100 µM under setting [2] is 2.73.

With `CC1(C)[C@@H](O[C@H]2O[C@H](C(=O)O)[C@@H](O)[C@H](O)[C@H]2O[C@@H]2O[C@H](C(=O)O)[C@@H](O)[C@H](O)[C@H]2O)CC[C@]2(C)[C@H]3C(=O)C=C4[C@@H]5C[C@@](C)(C(=O)O)CC[C@]5(C)CC[C@@]4(C)[C@]3(C)CC[C@@H]12` [Glycyrrhizic Acid Monoammonium Salt], the fold induction at 100 µM under setting [2] worked out at 1.72.

Regarding `CC1(C)[C@@H](O[C@H]2O[C@H](C(=O)O)[C@@H](O)[C@H](O)[C@H]2O[C@@H]2O[C@H](C(=O)O)[C@@H](O)[C@H](O)[C@H]2O)CC[C@]2(C)[C@H]3C(=O)C=C4[C@@H]5C[C@@](C)(C(=O)O)CC[C@]5(C)CC[C@@]4(C)[C@]3(C)CC[C@@H]12` [Glycyrrhizinic acid], the “Qdrug/Qctrl (TRIM31 mRNA expression level, drug group divided by control group)” value under setting [1] turned out to be 1.86 fold.

Regarding `COc1ccc([C@@H]2CC(=O)c3c(O)cc(O)cc3O2)cc1O` [Hesperetin], under setting [3], the fold induction at 100 µM turned out to be 3.06.

For `COc1ccc(-c2oc3c(CC=C(C)C)c(O[C@@H]4O[C@H](CO)[C@@H](O)[C@H](O)[C@H]4O)cc(O)c3c(=O)c2O[C@@H]2O[C@@H](C)[C@H](O)[C@@H](O)[C@H]2O)cc1` [Icariin], under setting [2], the fold induction at 100 µM came out at 3.33.

For the compound `COc1cc(-c2oc3cc(O)cc(O)c3c(=O)c2O)ccc1O` [Isorhamnetin], the fold induction at 100 µM under setting [3] turned out to be 2.77.

Regarding `COc1cc2c(cc1O)CC[n+]1cc3c(OC)c(OC)ccc3cc1-2` [Jateorhizine], under setting [1], the “Qdrug/Qctrl (TRIM31 mRNA expression level, drug group divided by control group)” value was 1.72 fold.

For the compound `O=c1c(O[C@@H]2O[C@@H](CO)[C@H](O)[C@H]2O)c(-c2ccc(O)cc2)oc2cc(O)cc(O)c12` [Juglanin], the fold induction at 100 µM under setting [2] was determined as 2.95.

Turning to `O=c1c(O)c(-c2ccc(O)cc2)oc2cc(O)cc(O)c12` [Kaempferol], under setting [3], the fold induction at 100 µM came to 3.26.

Take `Nc1cccc2c1CN(C1CCC(=O)NC1=O)C2=O` (stereo not shown) [Lenalidomide, reference compound]: under setting [2], the fold induction at 100 µM turned out to be 1.43.

Regarding `COc1cc2nccc(Oc3ccc(NC(=O)NC4CC4)c(Cl)c3)c2cc1C(N)=O` [Lenvatinib, reference compound], under setting [3], the fold induction at 100 µM is 2.75.

For `COc1cc(C(=O)OCCCCNC(=N)N)cc(OC)c1O` [Leonurine], the fold induction at 100 µM under setting [3] came to 1.51.

Take `O=C1C[C@@H](c2ccc(O)cc2)Oc2cc(O)ccc21` [Liquiritigenin]: under setting [1], the “Qdrug/Qctrl (TRIM31 mRNA expression level, drug group divided by control group)” value was determined as 2.79 fold.

As for `O=c1cc(-c2ccc(O)c(O)c2)oc2cc(O)cc(O)c12` [Luteolin], under setting [2], the fold induction at 100 µM was 3.09.

For the compound `O[C@H]1[C@H]2c3cc4c(cc3CN3CCC(=C[C@@H]1O)[C@H]23)OCO4` [Lycorine], the fold induction at 100 µM under setting [2] was found to be 2.26.

Consider `COc1ccc2c(c1O)-c1c(O)c(OC)cc3c1[C@H](C2)[N+](C)(C)CC3` [Magnoflorine], for which the fold induction at 100 µM under setting [2] stood at 1.38.

With `CN(C)C(=N)N=C(N)N` [Metformin, reference compound], the fold induction at 100 µM under setting [3] came to 2.45.

In the case of `O=c1c(O)c(-c2ccc(O)cc2O)oc2cc(O)cc(O)c12` [Morin], the fold induction at 100 µM under setting [2] turned out to be 2.86.

With `CC(C)=CCc1c(-c2ccc(O)cc2O)oc2c(CC=C(C)C)c(O)cc(O)c2c1=O` [Mulberrin], under setting [1], the “Qdrug/Qctrl (TRIM31 mRNA expression level, drug group divided by control group)” value is 3.74 fold.

For `O=c1c(O)c(-c2cc(O)c(O)c(O)c2)oc2cc(O)cc(O)c12` [Myricetin], the fold induction at 100 µM under setting [3] stood at 3.25.

Consider `O=C1C[C@@H](c2ccc(O)cc2)Oc2cc(O)cc(O)c21` [Naringenin], for which the fold induction at 100 µM under setting [3] is 3.02.

For the compound `O=C1CCC[C@@H]2[C@H]3CCC[N+]4([O-])CCC[C@@H](CN12)[C@@H]34` (stereo partly shown) [Oxymatrine], the fold induction at 100 µM under setting [2] amounted to 1.15.

Consider `O[C@H]1CCN2Cc3ccccc3N=C12` [Peganine], for which the “Qdrug/Qctrl (TRIM31 mRNA expression level, drug group divided by control group)” value under setting [1] came out at 1.34 fold.

Turning to `C[C@H]1CC[C@@H]2N(C1)C[C@H]1[C@@H]3C[C@H]4[C@@H](C[C@H](O)[C@H]5C[C@@H](O)CC[C@@]54C)[C@@H]3CC[C@@H]1[C@]2(C)O` [Peimine], under setting [1], the “Qdrug/Qctrl (TRIM31 mRNA expression level, drug group divided by control group)” value was determined as 1.31 fold.

As for `Oc1ccc(-c2[o+]c3cc(O)cc(O)c3cc2O)cc1` [Pelargonidin], the fold induction at 100 µM under setting [2] came out at 2.78.

Regarding `CC(C)(S)[C@@H](N)C(=O)O` [Penicillamine, reference compound], the fold induction at 100 µM under setting [3] was determined as 1.72.

For `O=C(/C=C/C=C/c1ccc2c(c1)OCO2)N1CCCCC1` [Piperine], the fold induction at 100 µM under setting [3] stood at 1.8.

Take `Nc1cccc2c1C(=O)N(C1CCC(=O)NC1=O)C2=O` (stereo not shown) [Pomalidomide, reference compound]: the fold induction at 100 µM under setting [2] came to 1.49.

On to `O=c1c(-c2ccc(O)cc2)coc2c([C@@H]3O[C@H](CO)[C@@H](O)[C@H](O)[C@H]3O)c(O)ccc12` [Puerarin], for which the fold induction at 100 µM under setting [2] was determined as 2.72.

Regarding `O=c1c(O)c(-c2ccc(O)c(O)c2)oc2cc(O)cc(O)c12` [Quercetin], the fold induction at 100 µM under setting [2] worked out at 3.38.

For `CNC(=O)c1cc(Oc2ccc(NC(=O)Nc3ccc(Cl)c(C(F)(F)F)c3)c(F)c2)ccn1` [Regorafenib, reference compound], the fold induction at 100 µM under setting [2] stood at 2.79.

Regarding `Oc1ccc(C=Cc2cc(O)cc(O)c2)cc1` [Resveratrol], the fold induction at 100 µM under setting [3] is 3.66.

`CC[C@H]1CN2CC[C@]3(C(=O)Nc4ccccc43)[C@@H]2C[C@@H]1/C(=C\OC)C(=O)OC` [Rhynchophylline]: the fold induction at 100 µM under setting [3] came out at 1.92.

Values taken from patent US20240293579A1, “Composition Comprising Trim31 and Rhbdf2 for Treatment of NAFLD/NASH” (CHONGQING MEIPULAN TECHNOLOGY CO., LTD, priority 2021, published 2024).
